Laboratory results as given in article PMC11345841, “Exploring 2-Sulfonylpyrimidine Warheads as Acrylamide Surrogates for Targeted Covalent Inhibition: A BTK Story” (Journal of Medicinal Chemistry, 2024).
Read-outs that look alike come from different tables or passages of the source.

How the values were obtained:
[1] = biological target: T1, DDR2 (Homo sapiens, UniProt Q16832); test: KINOMEscan ScanTK; type: binding
T1 construct: purchased Eurofins DiscoverX KINOMEscan (scanTK)
T1 sequence (Q16832 22-855): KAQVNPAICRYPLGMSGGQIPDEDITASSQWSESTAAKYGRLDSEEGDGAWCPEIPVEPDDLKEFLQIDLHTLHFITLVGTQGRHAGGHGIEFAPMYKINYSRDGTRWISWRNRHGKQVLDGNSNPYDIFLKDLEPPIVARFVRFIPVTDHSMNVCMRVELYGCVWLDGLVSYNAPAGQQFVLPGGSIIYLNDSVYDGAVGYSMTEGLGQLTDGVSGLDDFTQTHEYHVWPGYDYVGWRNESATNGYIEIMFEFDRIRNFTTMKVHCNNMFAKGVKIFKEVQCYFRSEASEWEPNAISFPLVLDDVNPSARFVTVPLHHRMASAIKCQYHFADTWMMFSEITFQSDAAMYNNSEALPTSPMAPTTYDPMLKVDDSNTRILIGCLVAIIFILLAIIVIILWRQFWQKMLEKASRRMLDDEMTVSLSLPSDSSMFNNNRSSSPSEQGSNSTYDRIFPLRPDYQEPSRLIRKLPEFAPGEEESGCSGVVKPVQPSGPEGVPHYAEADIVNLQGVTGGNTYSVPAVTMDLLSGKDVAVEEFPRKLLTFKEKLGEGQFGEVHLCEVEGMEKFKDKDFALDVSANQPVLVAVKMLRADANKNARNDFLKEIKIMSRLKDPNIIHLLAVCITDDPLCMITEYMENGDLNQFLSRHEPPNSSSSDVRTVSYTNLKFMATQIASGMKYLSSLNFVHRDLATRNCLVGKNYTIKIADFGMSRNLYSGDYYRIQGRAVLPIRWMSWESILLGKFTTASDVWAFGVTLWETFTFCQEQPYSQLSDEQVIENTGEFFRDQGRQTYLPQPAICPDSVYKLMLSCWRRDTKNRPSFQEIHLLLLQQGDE

[2] = biological target: T2, KIT(A829P) (Homo sapiens, UniProt P10721, A829P); test: KINOMEscan ScanTK; type: binding
T2 construct: purchased Eurofins DiscoverX KINOMEscan (scanTK)

[3] = biological target: T3, EPHA4 (Homo sapiens, UniProt P54764); test: KINOMEscan ScanTK; type: binding
T3 construct: purchased Eurofins DiscoverX KINOMEscan (scanTK)

[4] = biological target: T4, ABL1(F317I)-phosphorylated (Homo sapiens, UniProt P00519, F317I); test: KINOMEscan ScanTK; type: binding
T4 construct: purchased Eurofins DiscoverX KINOMEscan (scanTK)

[5] = biological target: wild-type BTK (Homo sapiens, UniProt Q06187); test: NanoBRET target engagement assay in HEK293 cells; conditions: for NanoBRET IC50: HEK293 cells, 1 h treatment
[6] = biological target: T5, FGR (Homo sapiens, UniProt P09769); test: KINOMEscan ScanTK; type: binding
T5 construct: purchased Eurofins DiscoverX KINOMEscan (scanTK)

[7] = biological target: T6, ITK (Homo sapiens, UniProt Q08881); test: KINOMEscan ScanTK; type: binding; conditions: for difference in %Control versus compound Ib at 1 µM / remaining binding at 1 µM: ITK; for inhibition at 1 µM: ScanTK
T6 construct: purchased Eurofins DiscoverX KINOMEscan (scanTK)
T6 sequence (Q08881 1-620): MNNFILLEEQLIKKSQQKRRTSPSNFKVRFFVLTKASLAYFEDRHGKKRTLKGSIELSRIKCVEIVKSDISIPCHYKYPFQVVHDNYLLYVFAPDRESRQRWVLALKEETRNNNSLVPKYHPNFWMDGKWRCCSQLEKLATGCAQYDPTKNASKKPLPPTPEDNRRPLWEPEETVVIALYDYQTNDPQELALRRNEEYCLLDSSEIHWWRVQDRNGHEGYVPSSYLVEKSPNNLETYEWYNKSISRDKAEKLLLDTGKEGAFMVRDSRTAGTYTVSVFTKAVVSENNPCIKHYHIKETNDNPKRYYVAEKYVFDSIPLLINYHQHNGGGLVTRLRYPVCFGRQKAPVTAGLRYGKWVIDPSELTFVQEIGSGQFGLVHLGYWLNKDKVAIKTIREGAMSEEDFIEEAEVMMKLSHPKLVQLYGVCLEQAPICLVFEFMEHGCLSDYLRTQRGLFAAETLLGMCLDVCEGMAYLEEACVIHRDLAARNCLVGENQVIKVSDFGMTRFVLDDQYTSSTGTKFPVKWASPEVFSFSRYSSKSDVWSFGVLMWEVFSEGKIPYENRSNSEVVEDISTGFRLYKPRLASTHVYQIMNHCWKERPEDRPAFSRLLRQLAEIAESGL

[8] = biological target: T7, TIE2 (Homo sapiens, UniProt Q02763); test: KINOMEscan ScanTK; type: binding
T7 construct: purchased Eurofins DiscoverX KINOMEscan (scanTK)

[9] = @1000nM, DDR2, read-out: %Control
[10] = DDR2, read-out: %Control @1000nM

T7 sequence (Q02763 23-1124): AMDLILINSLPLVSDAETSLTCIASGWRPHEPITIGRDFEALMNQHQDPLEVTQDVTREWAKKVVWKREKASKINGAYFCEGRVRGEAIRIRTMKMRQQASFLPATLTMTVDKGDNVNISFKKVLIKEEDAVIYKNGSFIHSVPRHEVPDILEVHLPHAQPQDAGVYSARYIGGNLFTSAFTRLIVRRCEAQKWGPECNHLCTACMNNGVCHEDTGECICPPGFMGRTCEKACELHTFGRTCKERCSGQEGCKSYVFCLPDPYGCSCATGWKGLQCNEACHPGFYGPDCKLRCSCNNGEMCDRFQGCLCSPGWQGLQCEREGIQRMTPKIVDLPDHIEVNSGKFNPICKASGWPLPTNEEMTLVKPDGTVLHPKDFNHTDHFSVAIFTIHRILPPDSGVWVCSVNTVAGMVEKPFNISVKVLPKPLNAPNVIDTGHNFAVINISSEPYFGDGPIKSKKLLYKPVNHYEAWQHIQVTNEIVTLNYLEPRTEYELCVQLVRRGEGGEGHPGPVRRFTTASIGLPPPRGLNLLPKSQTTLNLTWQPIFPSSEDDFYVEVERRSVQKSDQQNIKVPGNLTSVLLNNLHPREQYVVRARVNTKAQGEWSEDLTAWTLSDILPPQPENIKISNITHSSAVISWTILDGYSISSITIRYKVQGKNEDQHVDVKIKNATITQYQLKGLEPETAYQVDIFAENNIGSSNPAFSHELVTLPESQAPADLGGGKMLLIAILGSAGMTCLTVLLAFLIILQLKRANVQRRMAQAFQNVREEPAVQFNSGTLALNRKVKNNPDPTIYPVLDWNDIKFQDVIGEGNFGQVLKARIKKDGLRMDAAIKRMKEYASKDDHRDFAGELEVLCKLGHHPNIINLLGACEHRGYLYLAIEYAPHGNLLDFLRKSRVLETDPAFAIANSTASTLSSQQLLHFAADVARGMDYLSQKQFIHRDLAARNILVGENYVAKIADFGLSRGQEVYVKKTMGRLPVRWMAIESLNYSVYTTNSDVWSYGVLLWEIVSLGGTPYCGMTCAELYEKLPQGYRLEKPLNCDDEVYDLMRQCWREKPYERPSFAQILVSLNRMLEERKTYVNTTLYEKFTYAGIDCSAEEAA
T2 sequence (P10721 26-976 A829P): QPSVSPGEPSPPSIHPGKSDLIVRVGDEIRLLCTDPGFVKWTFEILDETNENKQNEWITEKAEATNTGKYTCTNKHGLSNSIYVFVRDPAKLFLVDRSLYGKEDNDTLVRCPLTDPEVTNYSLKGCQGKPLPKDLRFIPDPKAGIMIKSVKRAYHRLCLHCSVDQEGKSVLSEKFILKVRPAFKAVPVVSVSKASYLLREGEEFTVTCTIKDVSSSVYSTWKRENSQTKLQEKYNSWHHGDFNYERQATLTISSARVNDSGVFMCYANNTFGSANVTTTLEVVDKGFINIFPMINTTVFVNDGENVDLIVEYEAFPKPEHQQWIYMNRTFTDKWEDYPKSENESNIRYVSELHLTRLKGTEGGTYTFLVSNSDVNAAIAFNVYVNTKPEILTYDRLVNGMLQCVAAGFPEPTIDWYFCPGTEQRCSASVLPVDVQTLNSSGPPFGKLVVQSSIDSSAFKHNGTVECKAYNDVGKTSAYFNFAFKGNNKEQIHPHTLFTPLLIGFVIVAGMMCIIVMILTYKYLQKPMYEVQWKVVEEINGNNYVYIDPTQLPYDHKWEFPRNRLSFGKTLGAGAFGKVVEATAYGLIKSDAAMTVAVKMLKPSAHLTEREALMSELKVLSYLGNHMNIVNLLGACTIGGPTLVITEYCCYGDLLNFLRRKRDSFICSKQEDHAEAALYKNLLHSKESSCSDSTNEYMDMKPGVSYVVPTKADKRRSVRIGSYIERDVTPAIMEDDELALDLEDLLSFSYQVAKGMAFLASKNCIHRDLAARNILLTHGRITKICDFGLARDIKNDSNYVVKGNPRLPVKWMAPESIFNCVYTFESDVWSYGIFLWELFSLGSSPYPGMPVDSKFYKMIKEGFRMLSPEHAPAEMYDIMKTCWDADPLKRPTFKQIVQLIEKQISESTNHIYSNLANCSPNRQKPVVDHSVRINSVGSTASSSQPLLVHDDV
T3 sequence (P54764 20-986): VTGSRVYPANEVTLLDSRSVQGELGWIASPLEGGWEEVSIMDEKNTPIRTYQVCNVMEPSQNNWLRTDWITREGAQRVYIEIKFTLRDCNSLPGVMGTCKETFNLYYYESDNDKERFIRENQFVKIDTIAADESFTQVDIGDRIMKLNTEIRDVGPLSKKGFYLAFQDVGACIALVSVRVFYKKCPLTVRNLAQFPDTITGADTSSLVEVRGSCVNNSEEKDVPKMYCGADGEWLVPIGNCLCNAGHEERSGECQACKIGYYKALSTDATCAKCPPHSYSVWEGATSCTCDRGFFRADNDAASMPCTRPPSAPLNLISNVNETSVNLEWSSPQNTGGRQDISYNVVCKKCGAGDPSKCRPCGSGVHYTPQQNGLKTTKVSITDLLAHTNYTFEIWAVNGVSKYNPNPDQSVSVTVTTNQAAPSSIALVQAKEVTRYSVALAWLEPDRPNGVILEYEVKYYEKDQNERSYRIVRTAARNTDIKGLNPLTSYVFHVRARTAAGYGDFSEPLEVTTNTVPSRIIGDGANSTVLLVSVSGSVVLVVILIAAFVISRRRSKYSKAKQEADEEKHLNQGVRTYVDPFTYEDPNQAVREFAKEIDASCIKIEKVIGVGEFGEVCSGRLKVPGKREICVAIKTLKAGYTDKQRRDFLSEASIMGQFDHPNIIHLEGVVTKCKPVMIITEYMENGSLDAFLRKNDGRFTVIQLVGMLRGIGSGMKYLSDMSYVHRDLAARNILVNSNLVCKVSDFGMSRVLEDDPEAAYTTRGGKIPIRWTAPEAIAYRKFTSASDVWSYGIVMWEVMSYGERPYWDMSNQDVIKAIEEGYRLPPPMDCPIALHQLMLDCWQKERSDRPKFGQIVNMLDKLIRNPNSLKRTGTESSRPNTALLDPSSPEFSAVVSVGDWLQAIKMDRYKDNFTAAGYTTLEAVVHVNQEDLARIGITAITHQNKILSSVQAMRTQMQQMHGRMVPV
T4 sequence (P00519 whole entry F317I): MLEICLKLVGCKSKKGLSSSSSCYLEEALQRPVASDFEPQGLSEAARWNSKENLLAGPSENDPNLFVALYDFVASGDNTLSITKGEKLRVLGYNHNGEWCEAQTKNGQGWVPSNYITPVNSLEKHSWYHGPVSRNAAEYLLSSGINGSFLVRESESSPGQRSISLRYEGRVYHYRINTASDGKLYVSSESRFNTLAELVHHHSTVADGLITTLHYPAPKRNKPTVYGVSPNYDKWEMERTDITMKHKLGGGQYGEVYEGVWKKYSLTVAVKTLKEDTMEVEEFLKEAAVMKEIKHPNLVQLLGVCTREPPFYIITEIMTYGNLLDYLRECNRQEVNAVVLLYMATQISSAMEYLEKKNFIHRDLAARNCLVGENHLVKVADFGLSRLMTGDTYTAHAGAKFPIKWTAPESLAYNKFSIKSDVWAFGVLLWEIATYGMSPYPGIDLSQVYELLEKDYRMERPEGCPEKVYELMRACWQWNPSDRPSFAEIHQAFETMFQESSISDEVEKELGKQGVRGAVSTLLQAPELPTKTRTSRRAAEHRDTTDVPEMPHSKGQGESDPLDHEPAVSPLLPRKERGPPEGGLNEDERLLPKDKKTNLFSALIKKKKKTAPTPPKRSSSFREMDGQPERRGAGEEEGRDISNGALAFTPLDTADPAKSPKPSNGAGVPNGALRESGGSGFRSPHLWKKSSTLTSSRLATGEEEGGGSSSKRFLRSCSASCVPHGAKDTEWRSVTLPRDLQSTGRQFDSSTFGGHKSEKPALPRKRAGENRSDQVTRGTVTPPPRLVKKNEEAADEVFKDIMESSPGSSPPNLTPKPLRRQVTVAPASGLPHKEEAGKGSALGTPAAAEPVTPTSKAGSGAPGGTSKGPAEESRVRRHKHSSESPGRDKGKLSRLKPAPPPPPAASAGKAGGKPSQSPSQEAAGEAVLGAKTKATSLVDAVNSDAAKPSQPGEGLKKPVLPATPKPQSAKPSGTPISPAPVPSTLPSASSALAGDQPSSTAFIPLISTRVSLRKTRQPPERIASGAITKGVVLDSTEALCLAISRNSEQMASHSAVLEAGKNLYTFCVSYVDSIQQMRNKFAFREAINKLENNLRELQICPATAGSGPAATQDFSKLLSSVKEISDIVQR
T5 sequence (P09769 whole entry): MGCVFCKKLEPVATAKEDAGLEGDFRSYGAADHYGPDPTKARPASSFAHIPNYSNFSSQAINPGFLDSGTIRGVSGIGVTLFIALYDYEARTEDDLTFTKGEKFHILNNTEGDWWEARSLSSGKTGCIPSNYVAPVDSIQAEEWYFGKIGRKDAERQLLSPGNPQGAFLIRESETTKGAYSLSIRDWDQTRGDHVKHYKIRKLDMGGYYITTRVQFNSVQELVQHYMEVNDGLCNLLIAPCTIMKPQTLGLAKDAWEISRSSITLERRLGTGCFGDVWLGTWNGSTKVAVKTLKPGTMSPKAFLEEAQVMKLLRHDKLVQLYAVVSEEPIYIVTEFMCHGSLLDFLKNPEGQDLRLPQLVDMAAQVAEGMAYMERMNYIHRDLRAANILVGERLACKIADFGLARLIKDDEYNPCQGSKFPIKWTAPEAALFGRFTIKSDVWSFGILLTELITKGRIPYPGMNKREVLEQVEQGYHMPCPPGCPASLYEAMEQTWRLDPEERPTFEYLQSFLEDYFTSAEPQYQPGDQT

SMILES | difference in %Control from reference compound Ib at 1 µM ([1]; @1000nM, DDR2) [%] | remaining binding at 1 µM [1, 9] [%] | remaining binding at 1 µM [1, 10] [%] | remaining binding at 1 µM ([2]; @1000nM, read-out: %Control) [%] | remaining binding at 1 µM ([2]; read-out: %Control @1000nM) [%] | %Control difference from compound Ib at 1 µM ([3]; @1000nM) [%] | remaining binding at 1 µM ([3]; @1000nM, read-out: %Control) [%] | remaining binding at 1 µM ([3]; read-out: %Control @1000nM) [%] | difference in %Control from reference compound Ib at 1 µM ([4]; @1000nM) [%] | remaining binding at 1 µM ([4]; @1000nM, read-out: %Control) [%] | remaining binding at 1 µM ([4]; read-out: %Control @1000nM) [%] | difference in %Control versus compound Ib at 1 µM ([6]; @1000nM) [%] | remaining binding at 1 µM ([6]; @1000nM, read-out: %Control) [%] | remaining binding at 1 µM ([6]; read-out: %Control @1000nM) [%] | difference in %Control versus compound Ib at 1 µM ([7]; @1000nM) [%] | remaining binding at 1 µM ([7]; @1000nM, read-out: %Control) [%] | remaining binding at 1 µM ([7]; read-out: %Control @1000nM) [%] | inhibition at 1 µM [7] [%] | remaining binding at 1 µM ([8]; @1000nM, read-out: %Control) [%] | remaining binding at 1 µM ([8]; read-out: %Control @1000nM) [%] | other results
Cc1cnc(S(C)(=O)=O)nc1N1CCCC(n2nc(-c3ccc(Oc4ccccc4)cc3)c3c(N)ncnc32)C1 (centres unmarked) [Compound 8a, 1-(1-(5-Methyl-2-(methylsulfonyl)pyrimidin-4-yl)piperidin-3-yl)-3-(4-phenoxyphenyl)-1H-pyrazolo[3,4-d]pyrimidin-4-amine] | -5 | 92 | 92 | 84 | 84 | 9 | 100 | 100 | 17 | 90 | 90 | 3.3 | 8.6 | 8.6 | 69 | 84 | 84 | 16 | 91 | 91 | IC50 [5]: 8 ± 9 nM; NanoBRET IC50 [5]: low to subnanomolar
CCOC(=O)c1cnc(S(C)(=O)=O)nc1N1CCC[C@@H](n2nc(-c3ccc(Oc4ccccc4)cc3)c3c(N)ncnc32)C1 [Compound 8c, Ethyl (R)-4-(3-(4-Amino-3-(4-phenoxyphenyl)-1H-pyrazolo[3,4-d]pyrimidin-1-yl)piperidin-1-yl)-2-(methylsulfonyl)pyrimidine-5-carboxylate] | -22 | 75 | 75 | 73 | 73 | 9 | 100 | 100 | 15 | 88 | 88 | 13.7 | 19 | 19 | 73 | 88 | 88 | 12 | 90 | 90 | –
COC(=O)c1cnc(S(C)(=O)=O)nc1N1CCCC(n2nc(-c3ccc(Oc4ccccc4)cc3)c3c(N)ncnc32)C1 (centres unmarked) [Compound 8b, Methyl 4-(3-(4-Amino-3-(4-phenoxyphenyl)-1H-pyrazolo[3,4-d]pyrimidin-1-yl)piperidin-1-yl)-2-(methylsulfonyl)pyrimidine-5-carboxylate] | -6 | 91 | 91 | 70 | 70 | 7 | 98 | 98 | 6 | 79 | 79 | 20.7 | 26 | 26 | 56 | 71 | 71 | 29 | 72 | 72 | IC50 [5]: 38 ± 6 nM
CNC(=O)c1cnc(S(C)(=O)=O)nc1N1CCCC(n2nc(-c3ccc(Oc4ccccc4)cc3)c3c(N)ncnc32)C1 (centres unmarked) [Compound 8d, 4-(3-(4-Amino-3-(4-phenoxyphenyl)-1H-pyrazolo[3,4-d]pyrimidin-1-yl)piperidin-1-yl)-N-methyl-2-(methylsulfonyl)pyrimidine-5-carboxamide] | -15 | 82 | 82 | 63 | 63 | 9 | 100 | 100 | 17 | 90 | 90 | 10.7 | 16 | 16 | 66 | 81 | 81 | 19 | 74 | 74 | NanoBRET IC50 [5]: low to subnanomolar
C=CC(=O)N1CCC[C@@H](n2nc(-c3ccc(Oc4ccccc4)cc3)c3c(N)ncnc32)C1 [Compound 1g, Ibrutinib, reference compound] | – | – | – | – | – | – | 91 | 91 | – | 73 | 73 | – | – | – | – | 15 | 15 | 85 | – | – | remaining binding at 1 µM ([1]; read-out: %Control): 97%; remaining binding at 1 µM ([1]; read-out: %Control @1000nM): 97%; %Control @1000nM [6]: 5.3%; %Control ([6]; @1000nM): 5.3%
